Patent publication US11713309B2, “Solid forms of Cerdulatinib” (Alexion Pharmaceuticals, Inc., priority 2018, dated 2023)
Converted amounts (≈) assume the structure as drawn. Where a name gives a salt, the structure may show the parent alone. One block for each compound: values may come before it.

What was measured:
Assay type in all cases: physicochemical
[1] = Kinetic solubility in FaSSIF; conditions: for Solubility (mg/mL) 1 h / Solubility (mg/mL) 2 h / Solubility (mg/mL) 4 h / Solubility (mg/mL) 24 h: 37° C.; for Solubility (mg/mL) 1 h: drug loading ~10 mg/mL as freebase; for pH 1 h / pH 2 h / pH 4 h / pH 24 h: supernatant, FaSSIF (native pH 6.5)
Description: (§1) Kinetic solubility testing was conducted as follows: About 40-55 mg material was weighed into a 5-mL EP pipe. 4 mL of water/bio-relevant media (SGF, FaSSIF, or FeSSIF) was added into the corresponding sample pipe (drug loading: ˜10 mg/mL calculated as freebase). The pipes were capped tightly and the material was verified to be in contact with the media. The sample vials were placed on a roller and start rolling at 37° C. (rate: 25 r/min). Samples were taken at 1, 2, 4, 24 h. For each time point, 1.0 mL of suspension was transferred into a 2-mL centrifuge tube and the samples were centrifuged. The supernatant was filtered via 0.45 μm PTFE membrane and solubility and pH were measured. An XRPD test on residual solids was conducted.

[2] = Kinetic solubility in SGF; conditions: for Solubility (mg/mL) 1 h / Solubility (mg/mL) 2 h / Solubility (mg/mL) 4 h / Solubility (mg/mL) 24 h: SGF, 37° C.; for Solubility (mg/mL) 1 h: drug loading ~10 mg/mL as freebase; for pH 1 h / pH 2 h / pH 4 h / pH 24 h: supernatant, SGF (native pH 1.8)
Description: as §1

[3] = Kinetic solubility in water; conditions: 37° C.; for pH of supernatant: water (native pH 7.6)
Description: as §1

[4] = Kinetic solubility in FeSSIF; conditions: for Solubility (mg/mL) 1 h / Solubility (mg/mL) 2 h / Solubility (mg/mL) 4 h / Solubility (mg/mL) 24 h: 37° C.; for Solubility (mg/mL) 1 h: drug loading ~10 mg/mL as freebase; for Final Form: XRPD of residual solids; for Solubility (mg/mL) 1 h / Final Form / pH 1 h: 1 h; for Solubility (mg/mL) 2 h / Final Form / pH 2 h: 2 h; for Solubility (mg/mL) 4 h / Final Form / pH 4 h: 4 h; for pH 1 h / pH 2 h / pH 4 h / pH 24 h: supernatant
Description: as §1

[5] = 1 h, listed as Naphthalene disulfonate Type A
[6] = 2 h, listed as Naphthalene disulfonate Type A
[7] = 4 h, listed as Naphthalene disulfonate Type A
[8] = 24 h, listed as Naphthalene disulfonate Type A
[9] = listed as Naphthalene disulfonate Type A
[10] = 24 h, listed as Mesylate Type A

Solubility (mg/mL) 1 h ([1]; FaSSIF, 1 h, listed as Naphthalene disulfonate Type A): 0.0035 mg/mL (≈ 7.86 µM)
Solubility (mg/mL) 2 h ([1]; FaSSIF, 2 h, listed as Naphthalene disulfonate Type A): 0.0037 mg/mL (≈ 8.3 µM)
Solubility (mg/mL) 4 h ([1]; FaSSIF, 4 h, listed as Naphthalene disulfonate Type A): 0.0030 mg/mL (≈ 6.73 µM)
Solubility (mg/mL) 24 h ([1]; FaSSIF, 24 h, listed as Naphthalene disulfonate Type A): 0.0027 mg/mL (≈ 6.06 µM)
Final Form ([1]; XRPD of residual solids, FaSSIF, 1 h, 2 h, 4 h, 24 h, listed as Naphthalene disulfonate Type A): New form X
pH 1 h [1, 5]: 2.8
pH 2 h [1, 6]: 2.7
pH 4 h [1, 7]: 2.6
pH 24 h [1, 8]: 2.5
Solubility (mg/mL) 1 h [2, 9]: 0.019 mg/mL (≈ 42.6 µM)
Solubility (mg/mL) 2 h [2, 9]: 0.016 mg/mL (≈ 35.9 µM)
Solubility (mg/mL) 4 h [2, 9]: 0.018 mg/mL (≈ 40.4 µM)
Solubility (mg/mL) 24 h [2, 9]: 0.016 mg/mL (≈ 35.9 µM)
pH 1 h [2, 9]: 2.0
pH 2 h [2, 9]: 1.9
pH 4 h [2, 9]: 2.0
pH 24 h [2, 9]: 1.8
pH of supernatant [3, 5]: 2.8
pH of supernatant [3, 6]: 2.6
pH of supernatant [3, 7]: 2.5
pH of supernatant [3, 8]: 2.4
Kinetic solubility ([3]; water, 1 h, listed as Naphthalene disulfonate Type A): 1.4 µg/mL
Kinetic solubility ([3]; water, 2 h, listed as Naphthalene disulfonate Type A): 2.5 µg/mL
Kinetic solubility ([3]; water, 4 h, listed as Naphthalene disulfonate Type A): 1.5 µg/mL
Kinetic solubility ([3]; water, 24 h, listed as Naphthalene disulfonate Type A): 1.6 µg/mL
Solubility (mg/mL) 1 h [4, 9]: 0.0088 mg/mL (≈ 19.8 µM)
Solubility (mg/mL) 2 h [4, 9]: 0.0079 mg/mL (≈ 17.7 µM)
Solubility (mg/mL) 4 h [4, 9]: 0.0069 mg/mL (≈ 15.5 µM)
Solubility (mg/mL) 24 h [4, 8]: 0.0059 mg/mL (≈ 13.2 µM)
Final Form [4, 8]: New form X
pH 1 h [4, 9]: 4.6
pH 2 h [4, 9]: 4.6
pH 4 h [4, 9]: 4.6
pH 24 h [4, 8]: 4.6
Structure (SMILES): CCS(=O)(=O)N1CCN(c2ccc(Nc3ncc(C(N)=O)c(NC4CC4)n3)cc2)CC1 [4-(cyclopropylamino)-2-(4-(4-(ethylsulfonyl)piperazin-1-yl)phenylamino)pyrimidine-5-carboxamide]

Solubility (mg/mL) 1 h ([1]; FaSSIF, 1 h, listed as Mesylate Type A): 0.062 mg/mL
Solubility (mg/mL) 2 h ([1]; FaSSIF, 2 h, listed as Mesylate Type A): 0.055 mg/mL
Solubility (mg/mL) 4 h ([1]; FaSSIF, 4 h, listed as Mesylate Type A): 0.039 mg/mL
Solubility (mg/mL) 24 h ([1]; FaSSIF, 24 h, listed as Mesylate Type A): 0.020 mg/mL
pH 1 h ([1]; 1 h, listed as Mesylate Type A): 4.1
pH 2 h ([1]; 2 h, listed as Mesylate Type A): 3.7
pH 4 h ([1]; 4 h, listed as Mesylate Type A): 3.6
pH 24 h [1, 10]: 4.0
Solubility (mg/mL) 1 h ([2]; listed as Mesylate Type A): 0.081 mg/mL
Solubility (mg/mL) 2 h ([2]; listed as Mesylate Type A): 0.096 mg/mL
Solubility (mg/mL) 4 h ([2]; listed as Mesylate Type A): 0.080 mg/mL
Solubility (mg/mL) 24 h ([2]; listed as Mesylate Type A): 0.076 mg/mL
pH 1 h ([2]; listed as Mesylate Type A): 1.9
pH 2 h ([2]; listed as Mesylate Type A): 2.0
pH 4 h ([2]; listed as Mesylate Type A): 2.0
pH 24 h ([2]; listed as Mesylate Type A): 1.9
pH of supernatant ([3]; 1 h, listed as Mesylate Type A): 1.9
pH of supernatant ([3]; 2 h, listed as Mesylate Type A): 1.9
pH of supernatant ([3]; 4 h, listed as Mesylate Type A): 2.2
pH of supernatant [3, 10]: 2.0
Final Form of residual solids (XRPD) ([3]; water, 1 h, 2 h, 4 h, 24 h, listed as Mesylate Type A): Freebase Form II
Kinetic solubility ([3]; water, 1 h, listed as Mesylate Type A): 1400 µg/mL
Kinetic solubility ([3]; water, 2 h, listed as Mesylate Type A): 1300 µg/mL
Kinetic solubility ([3]; water, 4 h, listed as Mesylate Type A): 1300 µg/mL
Kinetic solubility ([3]; water, 24 h, listed as Mesylate Type A): 1300 µg/mL
Solubility (mg/mL) 1 h ([4]; listed as Mesylate Type A): 0.023 mg/mL
Solubility (mg/mL) 2 h ([4]; listed as Mesylate Type A): 0.020 mg/mL
Solubility (mg/mL) 4 h ([4]; listed as Mesylate Type A): 0.0084 mg/mL
Solubility (mg/mL) 24 h [4, 10]: 0.0083 mg/mL
Final Form ([4]; 24 h (merged cell), listed as Mesylate Type A): Freebase Form II
pH 1 h ([4]; listed as Mesylate Type A): 4.7
pH 2 h ([4]; listed as Mesylate Type A): 4.5
pH 4 h ([4]; listed as Mesylate Type A): 4.6
pH 24 h [4, 10]: 4.6
Structure (SMILES): CCS(=O)(=O)N1CCN(c2ccc(Nc3ncc(C(N)=O)c(NC4CC4)n3)cc2)CC1 [Compound I mesylate Type A, 4-(cyclopropylamino)-2-(4-(4-(ethylsulfonyl)piperazin-1-yl)phenylamino)pyrimidine-5-carboxamide]
